The term IC50 denotes the concentration needed to halve the response being measured.

Each structure is given as a SMILES string. The source made the active and inactive calls. The rule behind the calls is not given here.

Assay type in all cases: functional, organism-based
One test concerns Mus musculus. Nature of the test: In vivo antimalarial activity against Plasmodium chabaudi in BALB/c mice (Mus musculus) at a dose of 0.25 mg/kg; active. More on the design: dose 0.25 mg/kg.
In test [1] the test system is Plasmodium falciparum. Briefly: In vitro inhibition of multidrug-resistant Plasmodium falciparum K1; […].
The subject of test [2] is Plasmodium falciparum. Nature of the test: In vitro inhibition of multidrug-resistant Plasmodium falciparum K1.

`COc1cc2c(cc1OC)-c1c(N)c3cc(OC)c(OC)cc3c[n+]1CC2.[Cl-]`: in the test on Mus musculus, the outcome was Active. In the test with Plasmodium falciparum [1], this compound had an IC50 of 0.8 µg/mL.
In turn, `COc1ccc2cc3[n+](cc2c1OC)CCc1cc2c(cc1-3)OCO2.[Cl-]` [BERBERINE CHLORIDE] came in with a half-maximal inhibitory concentration (IC50) in the test with Plasmodium falciparum [2] of 0.36 µg/mL.
Consider `COc1cc2c(cc1OC)-c1cc3c(OC)c(OC)ccc3c[n+]1CC2.[Cl-]`, for which the half-inhibitory concentration (IC50) with Plasmodium falciparum [1] came out at 0.8 µg/mL.
Regarding `COc1cc2c(cc1OC)-c1cc3cc(OC)c(OC)cc3c[n+]1CC2.[Cl-]`, the outcome with Mus musculus was Active. The IC50 in the test with Plasmodium falciparum [1] is 0.8 µg/mL.
